Source: PubChem BioAssay (NCI)
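Each compound was tested at five concentrations against cells in 96-well plates for 48 hours. Definition used: TGI = concentration required for complete inhibition of growth.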

Tests used:
Experiment in all cases: NCI-60 cell line screen, 48 h
UACC-62 melanoma = system: UACC-62 melanoma
SN12C renal = system: SN12C renal
CAKI-1 renal = system: CAKI-1 renal
NCI-H23 lung = system: NCI-H23 lung
A549 NSCLC = system: A549 NSCLC
UO-31 renal = system: UO-31 renal
SF-295 CNS = system: SF-295 CNS
HCT-15 colon = system: HCT-15 colon
M14 melanoma = system: M14 melanoma
RPMI-8226 leukemia = system: RPMI-8226 leukemia
HCT-116 colon = system: HCT-116 colon
NCI/ADR-RES ovarian = system: NCI/ADR-RES ovarian
HS 578T breast = system: HS 578T breast
EKVX NSCLC = system: EKVX NSCLC
MDA-N = system: MDA-N
U251 CNS = system: U251 CNS
OVCAR-3 ovarian = system: OVCAR-3 ovarian
OVCAR-4 ovarian = system: OVCAR-4 ovarian
SK-OV-3 ovarian = system: SK-OV-3 ovarian
OVCAR-8 ovarian = system: OVCAR-8 ovarian
TK-10 renal = system: TK-10 renal
SR leukemia = system: SR leukemia
ACHN renal = system: ACHN renal
MDA-MB-435 = system: MDA-MB-435
OVCAR-5 ovarian = system: OVCAR-5 ovarian
NCI-H460 lung = system: NCI-H460 lung
MOLT-4 leukemia = system: MOLT-4 leukemia
LOX IMVI melanoma = system: LOX IMVI melanoma
SW-620 colon = system: SW-620 colon
SF-268 CNS = system: SF-268 CNS
IGROV1 ovarian = system: IGROV1 ovarian
SF-539 CNS = system: SF-539 CNS
DU-145 prostate = system: DU-145 prostate
UACC-257 melanoma = system: UACC-257 melanoma
A498 renal = system: A498 renal
SK-MEL-28 melanoma = system: SK-MEL-28 melanoma
HCC-2998 colon = system: HCC-2998 colon
SNB-75 CNS = system: SNB-75 CNS
NCI-H522 lung = system: NCI-H522 lung
HOP-92 NSCLC = system: HOP-92 NSCLC
MDA-MB-231 breast = system: MDA-MB-231 breast
KM12 colon = system: KM12 colon
SNB-19 CNS = system: SNB-19 CNS
COLO 205 colon = system: COLO 205 colon
MALME-3M melanoma = system: MALME-3M melanoma
786-0 renal = system: 786-0 renal
T-47D breast = system: T-47D breast
MCF7 breast = system: MCF7 breast
SK-MEL-2 melanoma = system: SK-MEL-2 melanoma
SK-MEL-5 melanoma = system: SK-MEL-5 melanoma
CCRF-CEM leukemia = system: CCRF-CEM leukemia
HL-60(TB) leukemia = system: HL-60(TB) leukemia
HT29 colon = system: HT29 colon
RXF 393 renal = system: RXF 393 renal
PC-3 prostate = system: PC-3 prostate
NCI-H226 lung = system: NCI-H226 lung
HOP-62 NSCLC = system: HOP-62 NSCLC
K-562 leukemia = system: K-562 leukemia

Cc1ccc(-c2nnc(CCCCCCCCc3nnc(-c4ccc(C)cc4O)n3N)n2N)c(O)c1
TGI (UACC-62 melanoma): > 100 µM | TGI (SN12C renal): > 100 µM | TGI (CAKI-1 renal): > 100 µM | TGI (NCI-H23 lung): > 100 µM | TGI (A549 NSCLC): > 100 µM | TGI (UO-31 renal): > 100 µM | TGI (SF-295 CNS): > 100 µM | TGI (HCT-15 colon): > 100 µM | TGI (M14 melanoma): > 100 µM | TGI (RPMI-8226 leukemia): > 100 µM | TGI (HCT-116 colon): > 100 µM | TGI (NCI/ADR-RES ovarian): > 100 µM | TGI (HS 578T breast): > 100 µM | TGI (EKVX NSCLC): > 100 µM | TGI (MDA-N): > 100 µM | TGI (U251 CNS): > 100 µM | TGI (OVCAR-3 ovarian): > 100 µM | TGI (OVCAR-4 ovarian): > 100 µM | TGI (SK-OV-3 ovarian): > 100 µM | TGI (OVCAR-8 ovarian): > 100 µM | TGI (TK-10 renal): > 100 µM | TGI (SR leukemia): > 100 µM | TGI (ACHN renal): > 100 µM | TGI (MDA-MB-435): > 100 µM | TGI (OVCAR-5 ovarian): > 100 µM | TGI (NCI-H460 lung): > 100 µM | TGI (MOLT-4 leukemia): > 100 µM | TGI (LOX IMVI melanoma): > 100 µM | TGI (SW-620 colon): > 100 µM | TGI (SF-268 CNS): > 100 µM | TGI (IGROV1 ovarian): > 100 µM | TGI (SF-539 CNS): > 100 µM | TGI (DU-145 prostate): > 100 µM | TGI (UACC-257 melanoma): > 100 µM | TGI (A498 renal): > 100 µM | TGI (SK-MEL-28 melanoma): > 100 µM | TGI (HCC-2998 colon): > 100 µM | TGI (SNB-75 CNS): > 100 µM | TGI (NCI-H522 lung): > 100 µM | TGI (HOP-92 NSCLC): > 100 µM | TGI (MDA-MB-231 breast): > 100 µM | TGI (KM12 colon): > 100 µM | TGI (SNB-19 CNS): > 100 µM | TGI (COLO 205 colon): > 100 µM | TGI (MALME-3M melanoma): > 100 µM | TGI (786-0 renal): > 100 µM | TGI (T-47D breast): > 100 µM | TGI (MCF7 breast): > 100 µM | TGI (SK-MEL-2 melanoma): > 100 µM

C=C[C@@]1(O)CCCC[C@@H]1CC(Sc1ccccc1)Sc1ccccc1
TGI (UACC-62 melanoma): > 100 µM | TGI (SK-MEL-5 melanoma): 30.8 µM | TGI (SN12C renal): 34.3 µM | TGI (CAKI-1 renal): 30.1 µM | TGI (CCRF-CEM leukemia): > 100 µM | TGI (NCI-H23 lung): 32.7 µM | TGI (HL-60(TB) leukemia): > 100 µM | TGI (A549 NSCLC): 36.2 µM | TGI (UO-31 renal): 32.2 µM | TGI (SF-295 CNS): 27.8 µM | TGI (HCT-15 colon): 34.6 µM | TGI (M14 melanoma): 37 µM | TGI (RPMI-8226 leukemia): 90.2 µM | TGI (HCT-116 colon): 31.4 µM | TGI (NCI/ADR-RES ovarian): 39.7 µM | TGI (HT29 colon): 36.9 µM | TGI (HS 578T breast): 33.6 µM | TGI (RXF 393 renal): 30.5 µM | TGI (EKVX NSCLC): 31.1 µM | TGI (MDA-N): 44.8 µM | TGI (U251 CNS): 31.9 µM | TGI (OVCAR-4 ovarian): 32.9 µM | TGI (SK-OV-3 ovarian): 31.6 µM | TGI (OVCAR-8 ovarian): 34.1 µM | TGI (TK-10 renal): 30.9 µM | TGI (PC-3 prostate): 29.1 µM | TGI (SR leukemia): > 100 µM | TGI (NCI-H226 lung): 38.7 µM | TGI (ACHN renal): > 100 µM | TGI (MDA-MB-435): 33 µM | TGI (OVCAR-5 ovarian): 32.9 µM | TGI (NCI-H460 lung): 26.2 µM | TGI (MOLT-4 leukemia): > 100 µM | TGI (HOP-62 NSCLC): 29.5 µM | TGI (LOX IMVI melanoma): 34.5 µM | TGI (SF-268 CNS): 29 µM | TGI (K-562 leukemia): > 100 µM | TGI (IGROV1 ovarian): 29.2 µM | TGI (DU-145 prostate): 32.2 µM | TGI (UACC-257 melanoma): 39.6 µM | TGI (A498 renal): 85 µM | TGI (SK-MEL-28 melanoma): 86.8 µM | TGI (HCC-2998 colon): 26.6 µM | TGI (SNB-75 CNS): 27.8 µM | TGI (NCI-H522 lung): 26.8 µM | TGI (MDA-MB-231 breast): 33.2 µM | TGI (KM12 colon): 37.9 µM | TGI (SNB-19 CNS): 35.6 µM | TGI (COLO 205 colon): 32.3 µM | TGI (MALME-3M melanoma): 28 µM | TGI (786-0 renal): 59.5 µM | TGI (T-47D breast): 27.8 µM | TGI (MCF7 breast): > 100 µM | TGI (SK-MEL-2 melanoma): 32.3 µM
